Assay results taken from patent US20260374739A1, “SMALL MOLECULAR WEIGHT CHEMICAL COMPOUND TO ANTAGONIZE EPH-EPHRIN TETRAMERIZATION AND INHIBIT BIDIRECTIONAL SIGNALING” (THE BOARD OF REGENTS OF THE UNIVERSITY OF TEXAS SYSTEM, priority 2022, published 2026).
Several values for one entry are separate records, joined by “and”; a condition that tells them apart may be missing. Equal values may be shown once. Read-outs that look alike come from different tables or passages of the source. One block for each molecule: values may come before it.

Assays:
EphrinB2-EphB2 [1] = target: T1, EphrinB2-EphB2 (Homo sapiens, UniProt P29323); assay: Octet tetramerization inhibition, immobilized human EphrinB2 binding to 50 nM soluble human EphB2
T1 construct: soluble human EphB1-His, EphB2-His, and EphB4-His ectodomains; commercially available human EphrinB1-Fc (EB1), EphrinB2-Fc (EB2), and EphrinB3-Fc (EB3) ectodomain proteins; purchased
T1 sequence (P29323 19-543 limits assumed): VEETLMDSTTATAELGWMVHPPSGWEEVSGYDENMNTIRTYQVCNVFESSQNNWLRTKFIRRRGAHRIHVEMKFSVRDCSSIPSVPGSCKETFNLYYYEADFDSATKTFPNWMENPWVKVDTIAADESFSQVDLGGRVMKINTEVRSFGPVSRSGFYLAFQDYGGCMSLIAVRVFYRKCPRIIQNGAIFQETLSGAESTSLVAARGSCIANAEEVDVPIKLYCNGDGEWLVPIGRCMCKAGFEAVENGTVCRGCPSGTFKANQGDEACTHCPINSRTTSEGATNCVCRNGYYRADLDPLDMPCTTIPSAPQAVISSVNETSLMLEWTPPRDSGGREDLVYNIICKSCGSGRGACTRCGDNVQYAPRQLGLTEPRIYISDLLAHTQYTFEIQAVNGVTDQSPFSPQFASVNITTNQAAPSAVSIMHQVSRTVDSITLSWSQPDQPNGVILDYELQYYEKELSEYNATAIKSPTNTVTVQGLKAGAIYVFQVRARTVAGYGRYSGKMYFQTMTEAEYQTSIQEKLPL

EphrinB2-EphB1 = target: T2, EphrinB2-EphB1 (Homo sapiens, UniProt P54762); assay: Octet 80 sec association/500 sec dissociation, immobilized human EphrinB2-Fc binding to soluble human EphB1-His; details: for EphB1 Inhibition Percent, Inhibition of Association ONLY: at 3.2 μM and 80 seconds; for EphB1 Inhibition Percent, Inhibition of Association ONLY / EphB1 Inhibition Percent, Inhibition of Association-Dissociation: immobilized human EphrinB2, 25 nM soluble human EphB1; for EphB1 Inhibition Percent, Inhibition of Association-Dissociation: at 3.2 μM and 580 seconds
T2 construct: soluble human EphB1-His, EphB2-His, and EphB4-His ectodomains; commercially available human EphrinB1-Fc (EB1), EphrinB2-Fc (EB2), and EphrinB3-Fc (EB3) ectodomain proteins; purchased
T2 sequence (P54762 18-540 limits assumed): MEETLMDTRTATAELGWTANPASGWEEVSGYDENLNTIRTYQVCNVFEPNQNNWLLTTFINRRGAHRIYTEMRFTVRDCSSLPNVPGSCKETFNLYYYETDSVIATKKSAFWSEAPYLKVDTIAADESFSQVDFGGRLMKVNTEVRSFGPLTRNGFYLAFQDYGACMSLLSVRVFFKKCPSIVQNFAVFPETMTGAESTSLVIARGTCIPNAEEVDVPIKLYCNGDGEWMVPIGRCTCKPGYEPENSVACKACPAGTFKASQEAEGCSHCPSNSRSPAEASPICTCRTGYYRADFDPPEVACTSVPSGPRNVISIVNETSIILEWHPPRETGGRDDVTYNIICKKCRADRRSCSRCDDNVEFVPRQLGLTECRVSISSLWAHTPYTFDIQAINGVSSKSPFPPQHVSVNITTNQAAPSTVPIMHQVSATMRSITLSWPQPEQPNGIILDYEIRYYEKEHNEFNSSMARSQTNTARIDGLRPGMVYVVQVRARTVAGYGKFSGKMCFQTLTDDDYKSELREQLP
In short: (§1)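 EphrinB2-Fc captured on AHC biosensors, then soluble His-tagged EphB ectodomain (25 nM for % inhibition runs) associated 80 s and dissociated 500 s in PBS, 0.05% Tween-20, 1% DMSO ± compound. Compounds tested at 0.1–3.2 μM with a 10 μM max standard; IC50 from AUC of full traces or at 75 s and 135 s.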

EphrinB2-EphB2 [2] = target: T1, EphrinB2-EphB2; assay: Octet 80 sec association/500 sec dissociation, immobilized human EphrinB2-Fc binding to soluble human EphB2-His; details: for EphB2 Inhibition Percent, Inhibition of Association ONLY: at 3.2 μM and 80 seconds; for EphB2 Inhibition Percent, Inhibition of Association ONLY / EphB2 Inhibition Percent, Inhibition of Association-Dissociation: immobilized human EphrinB2, 25 nM soluble human EphB2; for EphB2 Inhibition Percent, Inhibition of Association-Dissociation: at 3.2 μM and 580 seconds
In short: as §1

[3] = Absolute Association IC50 (300 sec), Table A, EphrinB2-EphB2
[4] = Absolute Dissociation IC50 (450 sec), Table A, EphrinB2-EphB2
[5] = Relative AUC/IC50, Table A, EphrinB2-EphB2, compound 7: association only
[6] = Relative Association IC50 (300 sec), Table A, EphrinB2-EphB2
[7] = Relative Dissociation IC50 (450 sec), Table A, EphrinB2-EphB2
[8] = EphB2, 25 nM EphB2, 3.2 μM compound, A20-I as max control, 0* = less than 0, no inhibition

SMILES: Oc1c(Br)cc(CN2CCOCC2)c2cccnc12 [Compound 6, 4-((7-bromo-8-hydroxyquinolin-1-ium-5-yl)methyl)morpholin-4-ium chloride]
IC50 (EphrinB2-EphB2 [1]; [3]): 0.93 µM
IC50 (EphrinB2-EphB2 [1]; [4]): 0.69 µM
IC50 (EphrinB2-EphB2 [1]; [5]): 0.48 µM
IC50 (EphrinB2-EphB2 [1]; [6]): 0.49 µM
IC50 (EphrinB2-EphB2 [1]; [7]): 0.53 µM
EphB1 Inhibition Percent, Inhibition of Association ONLY (EphrinB2-EphB1): 33.5%
EphB1 Inhibition Percent, Inhibition of Association-Dissociation (EphrinB2-EphB1): 48.7%
EphB2 Inhibition Percent, Inhibition of Association ONLY (EphrinB2-EphB2 [2]): 61.0%
EphB2 Inhibition Percent, Inhibition of Association-Dissociation (EphrinB2-EphB2 [2]): 76.8%

SMILES: Oc1c(I)cc(CN2CCOCC2)c2cccnc12 [Compound 7, 7-iodo-5-(morpholinomethyl)quinolin-8-ol]
tetramerization inhibitor activity (EphrinB2-EphB2 [1]): stronger tetramerization inhibitor compared to A20
IC50 (EphrinB2-EphB2 [1]; Absolute AUC/IC50, Table A, EphrinB2-EphB2): > 1.6 µM
IC50 (EphrinB2-EphB2 [1]; [3]): 1.5 µM
IC50 (EphrinB2-EphB2 [1]; [4]): > 1.6 µM
IC50 (EphrinB2-EphB2 [1]; [5]): 0.44 µM
IC50 (EphrinB2-EphB2 [1]; [6]): 0.89 µM
IC50 (EphrinB2-EphB2 [1]; [7]): 1.07 µM
IC50 (EphrinB2-EphB2 [1]; tetramerization inhibitor IC50 (relative), association step, surmountable tetramer): ~0.6 µM
% Inhibited (AUC), Association + Dissociation (EphrinB2-EphB1; EphB1, 0-160 sec, 50 nM, 10 μM compound, Table 4): 38.4%
% Inhibition: Association + Dissociation (160 sec) (EphrinB2-EphB1; EphB1, 25 nM EphB1, 3.2 μM compound, A20-I as max control, 0* = less than 0, no inhibition): 53.1% and 44.3% and 52.4%
inhibition at 3.2 µM (EphrinB2-EphB1; EphB1, 25 nM EphB1, 3.2 μM compound, A20-I as max control, 0* = less than 0, no inhibition, read-out: % Inhibition: Association + Dissociation (160 sec)): 46.8%
inhibition at 3.2 µM (EphrinB2-EphB1; EphB1, 25 nM EphB1, 3.2 μM compound, A20-I as max control, 0* = less than 0, no inhibition, read-out: % Inhibition: Association ONLY (80 sec)): 29.5%
% Inhibited (AUC), Association (EphrinB2-EphB1; EphB1, 50 nM, 10 μM compound, Table 4): 25.0%
inhibition (EphrinB2-EphB1; EphB1, 10 μM 2×HCl salt, read-out: % Inhibited (AUC), Association): 36.6%
IC50 (EphrinB2-EphB1; EphB1, Association (75″), read-out: Absolute IC50): > 3.2 µM
IC50 (EphrinB2-EphB1; EphB1, Association (75″), read-out: Relative IC50): 0.85 µM
IC50 (EphrinB2-EphB1; EphB1, Association (AUC), read-out: Absolute IC50): > 3.2 µM
IC50 (EphrinB2-EphB1; EphB1, Association (AUC), read-out: Relative IC50): 0.98 µM
IC50 (EphrinB2-EphB1; EphB1, Dissociation (135″), read-out: Absolute IC50): 0.85 µM
IC50 (EphrinB2-EphB1; EphB1, Dissociation (135″), read-out: Relative IC50): 0.44 µM
IC50 (EphrinB2-EphB1; EphB1, Full AUC, read-out: Absolute IC50): 1.48 µM
IC50 (EphrinB2-EphB1; EphB1, Full AUC, read-out: Relative IC50): 0.24 µM
inhibition (EphrinB2-EphB1; EphB1, first 160 sec, 10 μM 2×HCl salt, read-out: % Inhibited (AUC), Association + Dissociation): 48.5%
inhibition (EphrinB2-EphB1; EphB1, highest dose, typically 3.2 μM, read-out: Association (% Inhibited (AUC))): 32.6%
inhibition (EphrinB2-EphB1; EphB1, highest dose, typically 3.2 μM, read-out: Association + Dissociation (% Inhibited (AUC))): 49.4%
% Inhibition: Association + Dissociation (160 sec) (EphrinB2-EphB2 [2]; [8]): 80.6% and 77.6% and 74.3%
% Inhibition: Association ONLY (80 sec) (EphrinB2-EphB2 [2]; [8]): 66.1% and 61.2% and 56.7%
inhibition at 3.2 µM (EphrinB2-EphB2 [2]; EphB2, 25 nM EphB2, 3.2 μM compound, A20-I as max control, 0* = less than 0, no inhibition, read-out: % Inhibition: Association + Dissociation (160 sec)): 75.3%
inhibition at 3.2 µM (EphrinB2-EphB2 [2]; EphB2, 25 nM EphB2, 3.2 μM compound, A20-I as max control, 0* = less than 0, no inhibition, read-out: % Inhibition: Association ONLY (80 sec)): 59.6%
inhibition (EphrinB2-EphB2 [2]; EphB2, 10 μM 2×HCl salt, read-out: % Inhibited (AUC), Association): 61.8%
IC50 (EphrinB2-EphB2 [2]; EphB2, Association (75″), read-out: Absolute IC50): 1.66 µM
IC50 (EphrinB2-EphB2 [2]; EphB2, Association (75″), read-out: Relative IC50): 1.2 µM
IC50 (EphrinB2-EphB2 [2]; EphB2, Association (AUC), read-out: Absolute IC50): 2.24 µM
IC50 (EphrinB2-EphB2 [2]; EphB2, Association (AUC), read-out: Relative IC50): 1.15 µM
IC50 (EphrinB2-EphB2 [2]; EphB2, Dissociation (135″), read-out: Absolute IC50): 0.41 µM
IC50 (EphrinB2-EphB2 [2]; EphB2, Dissociation (135″), read-out: Relative IC50): 0.34 µM
IC50 (EphrinB2-EphB2 [2]; EphB2, Full AUC, read-out: Absolute IC50): 0.24 µM
IC50 (EphrinB2-EphB2 [2]; EphB2, Full AUC, read-out: Relative IC50): 0.19 µM
inhibition (EphrinB2-EphB2 [2]; EphB2, first 160 sec, 10 μM 2×HCl salt, read-out: % Inhibited (AUC), Association + Dissociation): 76.5%
inhibition (EphrinB2-EphB2 [2]; EphB2, highest dose, typically 3.2 μM, read-out: Association (% Inhibited (AUC))): 56.4%
inhibition (EphrinB2-EphB2 [2]; EphB2, highest dose, typically 3.2 μM, read-out: Association + Dissociation (% Inhibited (AUC))): 74.7%

SMILES: Oc1c(CN2CCCCC2)cc(Cl)c2cccnc12 [Compound 76, 5-chloro-7-(piperidin-1-ylmethyl)quinolin-8-ol, reference compound]
EphB1 Inhibition Percent, Inhibition of Association-Dissociation (EphrinB2-EphB1): 51.5% and 43.1%
EphB2 Inhibition Percent, Inhibition of Association ONLY (EphrinB2-EphB2 [2]): 59.7% and 46.7%
EphB2 Inhibition Percent, Inhibition of Association-Dissociation (EphrinB2-EphB2 [2]): 77.8% and 71.3%

Now from value to molecule:

EphB1 Inhibition Percent, Inhibition of Association ONLY (EphrinB2-EphB1): 28.3%
EphB1 Inhibition Percent, Inhibition of Association-Dissociation (EphrinB2-EphB1): 46.8%
EphB2 Inhibition Percent, Inhibition of Association ONLY (EphrinB2-EphB2 [2]): 54.9%
EphB2 Inhibition Percent, Inhibition of Association-Dissociation (EphrinB2-EphB2 [2]): 72.9%
SMILES: Oc1ccc(CN2CCCCC2)c2cccnc12 [Compound 68, 5-(piperidin-1-ylmethyl)quinolin-8-ol, reference compound]

EphB1 Inhibition Percent, Inhibition of Association ONLY (EphrinB2-EphB1): 16.9%
EphB1 Inhibition Percent, Inhibition of Association-Dissociation (EphrinB2-EphB1): 35.0%
EphB2 Inhibition Percent, Inhibition of Association ONLY (EphrinB2-EphB2 [2]): 5.4%
EphB2 Inhibition Percent, Inhibition of Association-Dissociation (EphrinB2-EphB2 [2]): 35.1%
SMILES: COCc1cc(CN2CCN(C)CC2)c(O)c2ncccc12 [Compound 77, 5-(methoxymethyl)-7-((4-methylpiperazin-1-yl)methyl)quinolin-8-ol, reference compound]
